According to US5849695A, “Parathyroid hormone analogues useful for treatment of osteoporosis and disorders of calcium meatabolism in mammals” (The Regents of the University of California, priority 1993, dated 1998):
Read-outs that look alike come from different tables or passages of the source.

Tests used:
[1] = target: T1, PTH receptor (Canis lupus familiaris, UniProt Q9TU31); format: binding, canine
T1 construct: canine renal plasma membranes; from tissue; host or cells: canine kidney (renal plasma membranes)
T1 sequence (Q9TU31 29-595): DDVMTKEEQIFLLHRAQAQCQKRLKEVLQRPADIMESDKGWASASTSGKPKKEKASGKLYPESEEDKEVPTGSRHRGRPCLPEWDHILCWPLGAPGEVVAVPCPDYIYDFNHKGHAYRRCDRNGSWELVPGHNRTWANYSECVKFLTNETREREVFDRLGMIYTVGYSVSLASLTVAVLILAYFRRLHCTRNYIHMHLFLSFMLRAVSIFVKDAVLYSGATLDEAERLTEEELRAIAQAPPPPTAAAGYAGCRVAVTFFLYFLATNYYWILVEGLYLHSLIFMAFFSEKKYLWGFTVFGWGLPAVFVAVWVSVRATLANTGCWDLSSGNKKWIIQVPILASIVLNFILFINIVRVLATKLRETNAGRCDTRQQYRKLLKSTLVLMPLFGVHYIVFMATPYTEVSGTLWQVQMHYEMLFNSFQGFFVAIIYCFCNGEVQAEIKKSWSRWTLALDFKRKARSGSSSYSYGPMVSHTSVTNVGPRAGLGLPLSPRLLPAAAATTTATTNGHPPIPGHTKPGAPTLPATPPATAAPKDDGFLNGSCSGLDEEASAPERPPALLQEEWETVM
Procedure: (§1) Receptor binding assays were carried out in canine renal plasma membranes and in UMR 106-H5 rat osteosarcoma cells as previously described in detail (Ref. 14,32), using ^125 I-labeled PTH(1-34)amide as the radioligand. Binding potency (IC50) was quantified as the concentration of unlabeled peptide required for half-maximal displacement of the radioligand. […] Adenylate cyclase activity was assessed in canine renal membranes by the conversion of [α-32p ] ATP to [^32 P] cyclic AMP, essentially as described, except for the addition of 100 micromolar GTP (Ref. 33,34). Adenylate cyclase activity in UMR 106-H5 cells was assessed essentially as described (Ref. 35). In brief, cells were incubated with [3H]adenine 1 micro Ci/ml of serum-free MEM for two hours at 37° C. to label the endogenous ATP pool. Cells were then exposed to 0.4 mM IBMX for 10 min, followed by the appropriate peptide for an additional 10 min at ambient temperature. The cells are then scraped in 20% TCA, and [3H]cyclic AMP is isolated by the column procedure of Salomon et al. (Ref. 36). Potency in the adenylate cyclase assays (Ka) is the concentration of peptide producing half-maximal enzyme activation.

[2] = target: T2, PTH receptor (Rattus norvegicus, UniProt P25961); format: binding
T2 construct: endogenous in cells; host or cells: UMR 106-H5 rat osteosarcoma cells
T2 sequence (P25961 27-591): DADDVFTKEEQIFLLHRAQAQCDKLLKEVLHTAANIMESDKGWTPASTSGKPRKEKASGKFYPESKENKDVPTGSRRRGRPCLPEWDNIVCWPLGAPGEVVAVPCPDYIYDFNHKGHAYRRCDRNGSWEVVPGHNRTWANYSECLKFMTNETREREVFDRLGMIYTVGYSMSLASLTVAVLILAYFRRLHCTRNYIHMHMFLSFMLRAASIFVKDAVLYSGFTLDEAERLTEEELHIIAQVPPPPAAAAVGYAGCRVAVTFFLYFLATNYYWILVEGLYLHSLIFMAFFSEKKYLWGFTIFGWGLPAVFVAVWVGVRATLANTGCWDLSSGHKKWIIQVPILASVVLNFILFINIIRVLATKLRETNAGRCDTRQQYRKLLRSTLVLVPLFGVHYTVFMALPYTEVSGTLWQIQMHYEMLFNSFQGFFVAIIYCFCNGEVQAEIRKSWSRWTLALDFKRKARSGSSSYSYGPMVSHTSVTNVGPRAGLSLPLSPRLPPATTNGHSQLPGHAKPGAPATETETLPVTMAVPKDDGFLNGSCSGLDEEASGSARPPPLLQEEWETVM
Procedure: as §1

[3] = target: T1, PTH receptor; format: biochemical, canine; details: for RENAL MEMBRANES Canine Activity (AC*): maximally effective dose; for antagonism of PTH-stimulated adenylate cyclase: canine renal plasma membranes and UMR 106-H5 cells (FIG. 8)
Procedure: as §1

[4] = target: T2, PTH receptor; format: cell-based; details: for UMR106-H5 CELLS Rat Bone Activity (AC*): maximally effective dose
Procedure: as §1, with “Assays were conducted using […] cells. These assays were performed as described in Cohen et al. (1991), J. Biological Chem., 266(3), 1997 and in the Experimental section, e.g. Example 11. Receptor” for “Receptor”

[5] = target: T3, PTH receptor (Homo sapiens, UniProt Q03431); format: cell-based; design: In intact rat (UMR-106) and human (SaOS-2) bone cell lines; endogenous in cells; host or cells: SaOS-2 human bone (osteosarcoma) cells
T3 sequence (Q03431 27-593): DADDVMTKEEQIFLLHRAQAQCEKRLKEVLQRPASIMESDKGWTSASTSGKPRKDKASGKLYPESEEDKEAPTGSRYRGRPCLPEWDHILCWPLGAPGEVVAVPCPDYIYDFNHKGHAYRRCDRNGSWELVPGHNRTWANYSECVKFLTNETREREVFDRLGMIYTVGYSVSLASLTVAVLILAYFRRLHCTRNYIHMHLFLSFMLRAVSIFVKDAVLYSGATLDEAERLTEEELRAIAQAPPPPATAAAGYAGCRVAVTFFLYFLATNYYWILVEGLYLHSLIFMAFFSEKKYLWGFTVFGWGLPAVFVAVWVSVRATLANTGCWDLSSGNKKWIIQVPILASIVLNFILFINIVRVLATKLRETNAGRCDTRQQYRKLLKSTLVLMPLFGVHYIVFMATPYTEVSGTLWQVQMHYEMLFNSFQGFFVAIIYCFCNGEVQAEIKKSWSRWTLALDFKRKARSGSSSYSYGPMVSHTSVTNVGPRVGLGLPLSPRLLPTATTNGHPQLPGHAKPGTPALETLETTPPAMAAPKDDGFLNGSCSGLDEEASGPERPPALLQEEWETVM
Excerpt: The renal membrane assay values listed reflect the effect of the polypeptide analogue with kidney tissue receptors. The UMR-106-H5 assay values reflect the effect of the peptide analogue with rat bone tissue receptors. The Sa05-2 assay values reflect the effect of the peptides for human bone tissue receptors.

[6] = Circular dichroism: alpha-helical content; format: physicochemical; details: for % HELIX TFE (30%) / % HELIX TFE (0%): Table 1, CD; for % HELIX TFE (30%): 30% trifluoroethanol; for % HELIX TFE (0%): absence of trifluoroethanol
Procedure: Far ultraviolet circular dichroism (CD) spectra were obtained in phosphate buffer (ph 7.0) at 25±1° C. in a 1.0 mm cell on an Instruments SA Jobin Yvon circular dichrograph calibrated with (+) 10-camphorsulfonic acid and epiandosterone. Peptides were analyzed at concentrations ranging from 0.1-0.3 mg/ml. The mean molar ellipticity per residue at 222 nm ([⊖]222 nm-, deg cm^2 /dmol) was used to derive estimates of alpha-helicity according to the method of Taylor and Kaiser (ref. 29).

[7] = Table 1, relative to bPTH(1-34) = 100%
[8] = Table 1, half-maximal enzyme activation, relative to bPTH(1-34) = 100%

Row | RENAL MEMBRANES Canine Activity (AC*) [3, 7] [%] | UMR106-H5 CELLS Rat Bone Activity (AC*) [4, 7] [%] | % HELIX TFE (30%) [6] [%] | % HELIX TFE (0%) [6] [%] | RENAL MEMBRANES Canine Potency (B) [1, 7] [%] | UMR106-H5 CELLS Rat Bone Potency (B) [2, 7] [%] | RENAL MEMBRANES Canine Potency (AC) [3, 8] [%] | UMR106-H5 CELLS Rat Bone Potency (AC) [4, 7] [%] | Molecule | further results
1 | 100 | 100 | – | – | – | – | – | – | CC[C@H](C)[C@H](NC(=O)[C@H](CCC(=O)O)NC(=O)[C@H](CO)NC(=O)[C@@H](NC(=O)[C@H](C)N)C(C)C)C(=O)N[C@@H](CCC(N)=O)C(=O)N[C@@H](Cc1ccccc1)C(=O)N[C@@H](CCSC)C(=O)N[C@@H](Cc1c[nH]cn1)C(=O)N[C@@H](CC(N)=O)C(=O)N[C@@H](CC(C)C)C(=O)NCC(=O)N[C@@H](CCCCN)C(=O)N[C@@H](Cc1c[nH]cn1)C(=O)N[C@@H](CC(C)C)C(=O)N[C@@H](CO)C(=O)N[C@@H](CO)C(=O)N[C@@H](CCSC)C(=O)N[C@@H](CCC(=O)O)C(=O)N[C@@H](CCCNC(=N)N)C(=O)N[C@H](C(=O)N[C@@H](CCC(=O)O)C(=O)N[C@@H](Cc1c[nH]c2ccccc12)C(=O)N[C@@H](CC(C)C)C(=O)N[C@@H](CCCNC(=N)N)C(=O)N[C@@H](CCCCN)C(=O)N[C@@H](CCCCN)C(=O)N[C@@H](CC(C)C)C(=O)N[C@@H](CCC(N)=O)C(=O)N[C@@H](CC(=O)O)C(=O)N[C@H](C(=O)N[C@@H](Cc1c[nH]cn1)C(=O)N[C@@H](CC(N)=O)C(=O)N[C@@H](Cc1ccccc1)C(=O)O)C(C)C)C(C)C [bPTH (1-34), bPTH(1-34), reference compound] | RENAL MEMBRANES Canine Potency (B) [1]: 100%; UMR106-H5 CELLS Rat Bone Potency (B) [2]: 100%; RENAL MEMBRANES Canine Potency (AC) [3]: 100%; UMR106-H5 CELLS Rat Bone Potency (AC) [4]: 100%
2 | 28 | 100 | 99 | 34 | 2 | 0.9 | 1.2 | 2.5 | [Tyr^3 ]bPTH(1-34) | agonist behaviour in the adenylate cyclase assay ([3]; both the bone and kidney systems): partial agonist activity; activity in adenylate cyclase compared with renal adenylate cyclase ([4]; UMR-106-H5 cells): increased activity

The next lines start with the molecule.

Row | Molecule | RENAL MEMBRANES Canine Activity (AC*) [3, 7] [%] | UMR106-H5 CELLS Rat Bone Activity (AC*) [4, 7] [%] | % HELIX TFE (30%) [6] [%] | % HELIX TFE (0%) [6] [%] | RENAL MEMBRANES Canine Potency (B) [1, 7] [%] | UMR106-H5 CELLS Rat Bone Potency (B) [2, 7] [%] | RENAL MEMBRANES Canine Potency (AC) [3, 8] [%] | UMR106-H5 CELLS Rat Bone Potency (AC) [4, 7] [%] | further results
3 | [Ala^6 ]bPTH(1-34) | – | – | – | – | – | – | – | – | potency in human bone cells versus renal membranes ([5]; human bone cells and renal membranes): equipotent
4 | [Glu^3 ]bPTH(1-34) | – | – | – | – | – | – | – | – | calculated alpha-helical content ([6]; aqueous solvent conditions): 19%; retention of binding potency / receptor binding activity ([1]; relative to bPTH(1-34), similar in the kidney and bone systems): less than 0.1%
5 | [His^3 ]bPTH(1-34) | 100 | 100 | 84 | 35 | 55 | 9 | 2.5 | 75 | potency for adenylate cyclase activation compared with renal adenylate cyclase ([4]; UMR-106-H5 cells): increased potency
6 | [Lys^3 ]bPTH(1-34) | 78 | 95 | 81 | 29 | 14 | 3.5 | 1.5 | 14 | bioactivity in bone cell assays versus kidney ([4]; both bone cell assays): enhanced bioactivity; SAOS2 CELLS Human Bone Activity (AC) [5, 7]: 100%; SAOS2 CELLS Human Bone Potency (AC) [5, 7]: 20%
7 | [Phe^3 ]bPTH(1-34) | – | – | – | – | – | – | – | – | antagonism of PTH-stimulated adenylate cyclase [3]: partial PTH antagonists
8 | [Phe^6 ]bPTH(1-34) | – | – | – | – | – | – | – | – | binding activity retained, of the activity of bPTH(1-34) ([1]; renal membranes): 1%; binding activity retained, of the activity of bPTH(1-34) ([2]; osteosarcoma cells): 4%; antagonism of PTH-stimulated adenylate cyclase [3]: inhibition; antagonism of PTH-stimulated adenylate cyclase ([3]; listed as [Phe^6 ]PTH(1-34)): partial PTH antagonists
